# Reference: US12240853B2, “Compounds useful in HIV therapy” (GlaxoSmithKline Intellectual Property (No.2) Limited, priority 2019, dated 2025)
# Columns and labels:
# [1] = tested on: HIV pseudotyped virus, M184V; assay type: cell-based; settings: U373 cells (CD4, CXCR4 or CCR5), luciferase signal after 3 days
# [2] = tested on: HIV pseudotyped virus (NL4-3 provirus, luciferase reporter), WT; assay: PSV (pseudotyped virus) assay, WT; settings: Human immunodeficiency virus 1, NL43, 72 h, read-out: WT IC50
# Description: A pseudotyped virus assay (PSV) was used to assess the potency of the HIV inhibitor.
# The PSV assay was performed by using U373 cells stably transformed to express human CD4, the primary receptor for HIV entry and either human CXCR4 or human CCR5 which are the co-receptors required for HIV entry as target cells for infection. […] This dose-range was applied to U373 cells and the pre-made pseudotyped virus added. The amount of luciferase signal produced after 3 days of culture was used to reflect the level of pseudotyped virus infection. An IC50, or the concentration of inhibitor required to reduce PSV infection by 50% from the infection containing no inhibitor was calculated. […] IC50 values were determined from a 10 point dose response curve using 3-4-fold serial dilution for each compound, which spans a concentration range>1000 fold.
# These values are plotted against the molar compound concentrations using the standard four parameter logistic equation: y=((Vmax*x^n)/(K^n+x^n))+Y2
SMILES,IC50 [1] [nM],IC50 [2] [nM]
"C#C[C@]1(COC(=O)CCCC)O[C@@H](n2cnc3c(NC(=O)CCCCCCC)nc(F)nc32)C[C@@H]1O [Example 26, ((2R,3S,5R)-2-ethynyl-5-(2-fluoro-6-octanamido-9H-purin-9-yl)-3-hydroxytetrahydrofuran-2-yl)methyl Pentanoate]",28,7
"C#C[C@]1(COC(=O)C(CCC)CCC)O[C@@H](n2cnc3c(N)nc(F)nc32)C[C@@H]1OC(=O)CCC [Example 30, ((2R,3S,5R)-5-(6-amino-2-fluoro-9H-purin-9-yl)-3-(butyryloxy)-2-ethynyltetrahydrofuran-2-yl)methyl 2-propylpentanoate]",1500,334
"C#C[C@@]12COC(=O)CCCCCCCCCCCCC(=O)O[C@H]1C[C@H](n1cnc3c(N)nc(F)nc31)O2 [Example 33, (2R,3aS,20aR)-2-(6-amino-2-fluoro-9H-purin-9-yl)-20a-ethynylhexadecahydro-2H-furo[3,2-b][1,5]dioxacyclononadecine-5,18-dione]",86,17
"C#C[C@]1(COC(=O)CCCCCCCCCCCCCCCCCCC(=O)O)O[C@@H](n2cnc3c(N)nc(F)nc32)C[C@@H]1O [Example 11, 20-(((2R,3S,5R)-5-(6-amino-2-fluoro-9H-purin-9-yl)-2-ethynyl-3-hydroxytetrahydrofuran-2-yl)methoxy)-20-oxoicosanoic Acid]",37,8
"C#C[C@]1(COC(=O)COCCOCCOC)O[C@@H](n2cnc3c(N)nc(F)nc32)C[C@@H]1O [Example 7, ((2R,3S,5R)-5-(6-amino-2-fluoro-9H-purin-9-yl)-2-ethynyl-3-hydroxytetrahydrofuran-2-yl)methyl 2-(2-(2-methoxyethoxy)ethoxy)acetate]",24,4
"C#C[C@]1(COC(=O)CCCCCCCCCCCCC(=O)O)O[C@@H](n2cnc3c(N)nc(F)nc32)C[C@@H]1O [Example 10, 14-(((2R,3S,5R)-5-(6-amino-2-fluoro-9H-purin-9-yl)-2-ethynyl-3-hydroxytetrahydrofuran-2-yl)methoxy)-14-oxotetradecanoic Acid]",44,9
"C#C[C@]1(COC(=O)C2CCCCC2)O[C@@H](n2cnc3c(N)nc(F)nc32)C[C@@H]1O [Example 1, ((2R,3S,5R)-5-(6-amino-2-fluoro-9H-purin-9-yl)-2-ethynyl-3-hydroxytetrahydrofuran-2-yl)methyl Cyclohexanecarboxylate]",8,2
"C#C[C@]1(COC(=O)CCCC)O[C@@H](n2cnc3c(NC(=O)CCC)nc(F)nc32)C[C@@H]1O [Example 25, ((2R,3S,5R)-5-(6-butyramido-2-fluoro-9H-purin-9-yl)-2-ethynyl-3-hydroxytetrahydrofuran-2-yl)methyl Pentanoate]",186,21
"C#C[C@]1(COC(=O)CCCCCCCCC(=O)O)O[C@@H](n2cnc3c(N)nc(F)nc32)C[C@@H]1O [Example 9, 10-(((2R,3S,5R)-5-(6-amino-2-fluoro-9H-purin-9-yl)-2-ethynyl-3-hydroxytetrahydrofuran-2-yl)methoxy)-10-oxodecanoic Acid]",167,35
"C#C[C@]1(COC(=O)CCCC)O[C@@H](n2cnc3c(N)nc(F)nc32)C[C@@H]1OC(=O)CCCCCC [Example 20, (2R,3S,5R)-5-(6-amino-2-fluoro-9H-purin-9-yl)-2-ethynyl-2-((pentanoyloxy)methyl)tetrahydrofuran-3-yl Heptanoate]",25,5
"C#C[C@]1(COC(=O)CCCC(=O)OCCCCCCCCCCCCCC)O[C@@H](n2cnc3c(N)nc(F)nc32)C[C@@H]1O [Example 14, ((2R,3S,5R)-5-(6-amino-2-fluoro-9H-purin-9-yl)-2-ethynyl-3-hydroxytetrahydrofuran-2-yl)methyl Tetradecyl Glutarate]",148,33
"C#C[C@]1(COC(=O)[C@H](C)NC(=O)CCCCCC)O[C@@H](n2cnc3c(N)nc(F)nc32)C[C@@H]1O [Example 36, ((2R,3S,5R)-5-(6-amino-2-fluoro-9H-purin-9-yl)-2-ethynyl-3-hydroxytetrahydrofuran-2-yl)methyl heptanoyl-L-alaninate]",21,4
"C#C[C@]1(COC(=O)CCCCCCCCCCCCC)O[C@@H](n2cnc3c(N)nc(F)nc32)C[C@@H]1OC(=O)CCCCCCCCCCCCC [Example 17, (2R,3S,5R)-5-(6-amino-2-fluoro-9H-purin-9-yl)-2-ethynyl-2-((tetradecanoyloxy)methyl)tetrahydrofuran-3-yl Tetradecanoate]",10300,1740
"C#C[C@]1(COC(=O)CNC(=O)CCCCCCCCCCCCC)O[C@@H](n2cnc3c(N)nc(F)nc32)C[C@@H]1O [Example 35, ((2R,3S,5R)-5-(6-amino-2-fluoro-9H-purin-9-yl)-2-ethynyl-3-hydroxytetrahydrofuran-2-yl)methyl Tetradecanoylglycinate]",9,1
"C#C[C@]1(COC(=O)[C@H]2CC[C@H](C(C)(C)C)CC2)O[C@@H](n2cnc3c(N)nc(F)nc32)C[C@@H]1O [Example 4, ((2R,3S,5R)-5-(6-amino-2-fluoro-9H-purin-9-yl)-2-ethynyl-3-hydroxytetrahydrofuran-2-yl)methyl trans-4-(tert-butyl)cyclohexane-1 carboxylate]",17,3
"C#C[C@]1(COC(=O)COCCOCCCC)O[C@@H](n2cnc3c(N)nc(F)nc32)C[C@@H]1O [Example 8, ((2R,3S,5R)-5-(6-amino-2-fluoro-9H-purin-9-yl)-2-ethynyl-3-hydroxytetrahydrofuran-2-yl)methyl 2-(2-butoxyethoxy)acetate]",11,2
"C#C[C@]1(COC(=O)COCCOC)O[C@@H](n2cnc3c(N)nc(F)nc32)C[C@@H]1O [Example 6, ((2R,3S,5R)-5-(6-amino-2-fluoro-9H-purin-9-yl)-2-ethynyl-3-hydroxytetrahydrofuran-2-yl)methyl 2-(2-methoxyethoxy)acetate]",25,4
"C#C[C@]1(COC(=O)c2ccccc2)O[C@@H](n2cnc3c(N)nc(F)nc32)C[C@@H]1O [Example 2, ((2R,3S,5R)-5-(6-amino-2-fluoro-9H-purin-9-yl)-2-ethynyl-3-hydroxytetrahydrofuran-2-yl)methyl Benzoate]",13,3
"C#C[C@]1(COC(=O)CCCC)O[C@@H](n2cnc3c(NC(=O)CCCCCCCCCCC)nc(F)nc32)C[C@@H]1O [Example 28, ((2R,3S,5R)-5-(6-dodecanamido-2-fluoro-9H-purin-9-yl)-2-ethynyl-3-hydroxytetrahydrofuran-2-yl)methyl Pentanoate]",26,6
"C#C[C@]1(COC(=O)CCCC)O[C@@H](n2cnc3c(N)nc(F)nc32)C[C@@H]1OC(=O)CCCCCCCCCCCC [Example 19, (2R,3S,5R)-5-(6-amino-2-fluoro-9H-purin-9-yl)-2-ethynyl-2-((pentanoyloxy)methyl)tetrahydrofuran-3-yl Tridecanoate]",87,18
"C#C[C@]1(COC(=O)CCCC)O[C@@H](n2cnc3c(N)nc(F)nc32)C[C@@H]1OC(=O)CCCC [Example 23, (2R,3S,5R)-5-(6-amino-2-fluoro-9H-purin-9-yl)-2-ethynyl-2-((pentanoyloxy)methyl)tetrahydrofuran-3-yl Pentanoate]",68,11
